# Values of other authors as cited in US20240325308A1, “AMNIOTIC FLUID STABILIZED COMPOSITIONS AND METHODS FOR IN UTERO DELIVERY OF THERAPEUTIC AGENTS” (The Trustees of the University of Pennsylvania, priority 2021, published 2024).
# System: fetal lung
# Settings: vitelline vein injection, gestational age E16 fetuses
compound,measurement,value
"CCCCCCCCCCCCC(O)CN(CCOCCN(CC(O)CCCCCCCCCCCC)CC(O)CCCCCCCCCCCC)CCN1CCN(CCOCCN(CC(O)CCCCCCCCCCCC)CC(O)CCCCCCCCCCCC)CC1 (stereo not shown) [B-4, 1,1′-((2-(2-(4-(2-((2-(2-(bis(2-hydroxytetradecyl)amino)ethoxy)ethyl)(2-hydroxytetradecyl)amino)ethyl)piperazin-1-yl)ethoxy)ethyl)azanediyl)bis(tetradecan-2-ol)]",Fetal lung delivery of LNPs formulated with the ionizable lipid,highest fetal lung delivery
